The test addresses T1, cystine/glutamate antiporter (system xc-) (Homo sapiens, UniProt Q9UPY5).
T1 construct: gene SLC7A11
T1 sequence (Q9UPY5 1-501): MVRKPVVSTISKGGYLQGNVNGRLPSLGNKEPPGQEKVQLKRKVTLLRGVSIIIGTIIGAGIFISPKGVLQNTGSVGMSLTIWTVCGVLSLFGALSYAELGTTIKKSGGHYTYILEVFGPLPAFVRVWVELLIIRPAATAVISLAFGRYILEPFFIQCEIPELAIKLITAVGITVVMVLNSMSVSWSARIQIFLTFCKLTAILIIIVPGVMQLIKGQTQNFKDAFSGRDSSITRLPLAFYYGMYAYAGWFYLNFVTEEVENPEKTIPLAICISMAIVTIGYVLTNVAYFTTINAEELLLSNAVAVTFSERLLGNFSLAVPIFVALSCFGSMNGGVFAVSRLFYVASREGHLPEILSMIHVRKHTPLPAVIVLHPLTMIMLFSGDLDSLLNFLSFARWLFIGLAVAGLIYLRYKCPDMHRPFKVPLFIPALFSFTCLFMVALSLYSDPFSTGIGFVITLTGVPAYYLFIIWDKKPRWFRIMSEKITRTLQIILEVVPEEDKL
T1 sequence (P08195 2-529 partner): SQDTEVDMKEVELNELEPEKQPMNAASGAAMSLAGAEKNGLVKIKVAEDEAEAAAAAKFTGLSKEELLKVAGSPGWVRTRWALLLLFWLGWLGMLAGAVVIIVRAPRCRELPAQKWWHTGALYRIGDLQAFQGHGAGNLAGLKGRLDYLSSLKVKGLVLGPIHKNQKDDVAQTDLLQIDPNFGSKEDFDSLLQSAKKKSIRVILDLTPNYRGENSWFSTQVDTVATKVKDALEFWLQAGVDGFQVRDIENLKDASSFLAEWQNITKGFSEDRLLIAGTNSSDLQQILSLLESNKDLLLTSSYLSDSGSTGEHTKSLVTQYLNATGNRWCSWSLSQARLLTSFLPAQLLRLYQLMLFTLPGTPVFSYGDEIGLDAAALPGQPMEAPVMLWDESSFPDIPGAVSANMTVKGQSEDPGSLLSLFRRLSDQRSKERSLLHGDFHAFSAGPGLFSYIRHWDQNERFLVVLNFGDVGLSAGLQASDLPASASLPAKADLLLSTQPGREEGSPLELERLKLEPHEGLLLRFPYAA
Description: […]-cystine uptake inhibition in AsPC-1 cells, […] min at […]. The conditions noted are these: ASPC1; read-out: % blockade at 200 μM. The test is classed as cell-based.

For the molecule `CCOc1ccccc1-n1c(CN2CCN(C(=O)COc3ccc(CNCCCCCCN4C5CCCC4CC(OC(=O)Nc4cc(C)ccc4OC)C5)cc3)CC2)nc2ccccc2c1=O` (stereo not shown) [SW V-49], the inhibition at 200 µM stood at 85%.

The record behind these values is PMC5085100, “Conjugation to the sigma-2 ligand SV119 overcomes uptake blockade and converts dm-Erastin into a potent pancreatic cancer therapeutic” (Oncotarget, 2016).
